The molecules below were run against T1, 5-LO (Homo sapiens, UniProt P09917) (assay: Test a) in vitro inhibition of LTB4 production in A23187-challenged heparinised human blood (radioimmunoassay)). Details: calcium ionophore A23187 challenge.
T1 construct: effects of a test compound against 5-LO and also cyclooxygenase in the presence of blood cells and proteins; endogenous in cells; host or cells: blood cells in heparinised human blood challenged with calcium ionophore A23187
T1 sequence (P09917 1-674): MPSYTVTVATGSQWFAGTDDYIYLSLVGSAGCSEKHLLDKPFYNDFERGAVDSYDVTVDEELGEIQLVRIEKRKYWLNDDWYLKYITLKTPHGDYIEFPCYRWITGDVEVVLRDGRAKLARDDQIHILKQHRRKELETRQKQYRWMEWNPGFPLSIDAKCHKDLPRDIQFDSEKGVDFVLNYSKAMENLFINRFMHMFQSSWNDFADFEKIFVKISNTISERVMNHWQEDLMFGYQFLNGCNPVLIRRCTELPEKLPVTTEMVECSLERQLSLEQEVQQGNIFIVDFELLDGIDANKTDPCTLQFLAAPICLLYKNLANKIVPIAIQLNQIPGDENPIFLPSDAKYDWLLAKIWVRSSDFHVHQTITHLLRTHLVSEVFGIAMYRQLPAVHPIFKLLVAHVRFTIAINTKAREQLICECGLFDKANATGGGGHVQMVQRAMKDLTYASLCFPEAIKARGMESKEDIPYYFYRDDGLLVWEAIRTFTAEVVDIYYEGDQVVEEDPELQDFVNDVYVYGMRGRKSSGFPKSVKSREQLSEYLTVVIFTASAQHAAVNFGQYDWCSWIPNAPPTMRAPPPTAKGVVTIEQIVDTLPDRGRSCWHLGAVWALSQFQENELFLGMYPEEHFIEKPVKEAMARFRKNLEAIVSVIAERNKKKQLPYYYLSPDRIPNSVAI
Type: cell-based
Procedure: a) An in vitro assay system involving incubating a test compound with heparinised human blood, prior to challenge with the calcium ionophore A23187 and then indirectly measuring the inhibitory effects on 5-LO by assaying the amount of LTB4 using specific radioimmunoassays described by Carey and Forder (F. Carey and R. A. Forder, Prostaglandins, Leukotrienes Med., 1986, 22, 57; Prostaglandins, 198, 28, 666; Brit. J. Pharmacol. 1985, 84, 34P) which involve the use of a protein-LTB4 conjugate produced using the procedure of Young et alia (Prostaglandins, 1983, 26(4), 605-613). The effects of a test compound on the enzyme cyclooxygenase (which is involved in the alternative metabolic pathway for arachidonic acid and gives rise to prostaglandins, thromboxanes and related metabolites) may be measured at the same time using the specific radioimmunoassay for thromboxane B2 (TxB2) described by Carey and Forder (see above). This test provides an indication of the effects of a test compound against 5-LO and also cyclooxygenase in the presence of blood cells and proteins. It permits the selectivity of the inhibitory effect on 5-LO or cyclooxygenase to be assessed.
CCC(CC)(C(C)=O)c1cccc(OCc2ccc3c(ccc(=O)n3C)c2)c1 [3-ethyl-3-[3-(1-methyl-2-oxo-1,2-dihydroquinolin-6-ylmethoxy)phenyl]pentan-2-one] gave an IC50 of 150 nM. Work on CCC(C#N)(CC)c1cccc(OCc2ccc3c(ccc(=O)n3C)c2)c1 [2-ethyl-2-[3-(1-methyl-2-oxo-1,2-dihydroquinolin-6-ylmethoxy)phenyl]butyronitrile] yielded an IC50 of 500 nM. Molecule C=CCC(C#N)(CC=C)c1cccc(OCc2ccc3c(ccc(=O)n3C)c2)c1 [2,2-diallyl-2-[3-(1-methyl-2-oxo-1,2-dihydroquinolin-6-ylmethoxy)phenyl]acetonitrile] has an IC50 of 50 nM. Molecule CCC(C)(C#N)c1cccc(OCc2ccc3c(ccc(=O)n3C)c2)c1 (stereo not shown) [2-methyl-2-[3-(1-methyl-2-oxo-1,2-dihydroquinolin-6-ylmethoxy)phenyl]butyronitrile] has an IC50 of 80 nM.

— US5519022A, “α, α dialkylbenzyl derivatives” (Imperial Chemical Industries Plc, priority 1991, dated 1996)
